In one experiment the test system is ECF-FoIT2. Description: Uptake assay into proteoliposome (radiolabelled folate uptake). It is filed as biochemical, L. delbrueckii. The note with it: folate uptake into proteoliposomes, n = 2, mean ± SD. Here is the method: In summary, both 1 and 22 are capable of inhibiting the ECF-FoIT2 in a proteoliposome-based uptake assay which further complements the results obtained from the whole-cell uptake assay. Table 4. Relative inhibition of ECF-FoIT2 in proteoliposome uptake assay
4.3.2. Uptake assay into proteoliposome
This assay was performed based on the protocol reported by Swier et al. with minor modifications.^18

The test system of another experiment is E. faecium DSM-17050. Description: MIC screening against Gram-positive pathogens. The class given is cell-based. The note with it: Enterococcus faecium. Here is the method:
(§1) 4.3.3. Screening against clinically relevant Gram-positive pathogens.
(§2) All microorganisms were obtained from the German Collection of Microorganisms and Cell Cultures (DSMZ) and were handled according to standard procedures. Bacteria were inoculated into tryptic soy broth (TSB) to obtain a final inoculum of […] colony-forming units (CFU)/mL. The tested compounds were prepared as DMSO stocks (20 mM). Serial dilutions of derivatives in the growth medium (0.06 to 128 µM) were prepared in sterile 96-well plates, and the bacterial suspensions were added. Growth inhibition was assessed after static incubation at 37 °C for 24 h. S. pneumoniae was grown at 5% CO2. MIC values are defined as the lowest compound concentration where no visible growth is observed.

Another experiment relates to E. faecium DSM-20478. As to the kind of experiment: MIC screening against Gram-positive pathogens. The class given is cell-based. The following applies: Enterococcus faecium. As to the method: as §1, §2
Experiment [1] deals with Enterococcus faecalis DSM-20477. Description: MIC screening against Gram-positive pathogens. It is filed as cell-based. As to the method: as §1, §2
The next experiment deals with S. pneumoniae DSM-11865. As to the kind of experiment: MIC screening against Gram-positive pathogens. The class given is cell-based. The following applies: Streptococcus pneumoniae. As to the method:
as §1, §2

Experiment [2] deals with Streptococcus pneumoniae DSM-20566. As to the kind of experiment: MIC screening against Gram-positive pathogens. It is filed as cell-based. The note with it: 37 °C, 24 h. As to the method:
as §1, §2

The values that follow come from patent EP4663242A1, “TARGETING THE ENERGY COUPLING FACTOR (ECF) TRANSPORTERS AS NOVEL ANTIMICROBIAL TARGET” (Helmholtz-Zentrum für Infektionsforschung GmbH, priority 2024, dated 2025).

Values after ≈ are worked out from the molar mass of the structure shown. Values joined by “and” are separate entries in the source; they are usually repeats but may differ in a detail not shown here. Identical values can stand only once. Like-named read-outs stand apart in the source and are kept apart here.

In the case of `O=C(O)CCc1nc(-c2ccc(Cl)cc2)c(-c2ccccc2)o1` [Compound 1, 3-(4-(4-Chlorophenyl)-5-phenyloxazol-2-yl)propanoic acid], in the experiment on ECF-FoIT2, the “Relative inhibition (%) at 150 µM” value was 44% and 44 ± 2%. In addition, the MIC in the experiment on E. faecium DSM-17050 (DSM17050, 24 h) is over 128 µM; in the experiment on E. faecium DSM-20478 (DSM20478, 24 h) it was over 128 µM; in experiment [1] (Enterococcus faecalis, DSM20477, 24 h) it was over 128 µM; in the experiment on S. pneumoniae DSM-11865 (DSM11865, 24 h), over 128 µM.
Turning to `O=C(O)c1cccc(-c2nc(-c3ccc(Cl)c(Cl)c3)c(-c3cccc(C(F)(F)F)c3)o2)c1` [Compound 22, 3-(4-(3,4-Dichlorophenyl)-5-(3-(trifluoromethyl)phenyl)oxazol-2-yl)benzoic acid], the “Relative inhibition (%) at 150 µM” value with ECF-FoIT2 is 95% and 95 ± 1%. Also, the MIC is 2 µM (≈ 0.957 µg/mL) in the experiment with E. faecium DSM-17050 (DSM17050, E. faecium DSM-17050, vancomycin-resistant strain, TSB, 37 °C, 24 h, read-out: MIC); 4 µM (≈ 1.91 µg/mL) in the experiment on E. faecium DSM-20478 (DSM20478, E. faecium DSM-20478, TSB, 37 °C, 24 h, read-out: MIC); 4 µM (≈ 1.91 µg/mL) in experiment [1] (DSM20477, Enterococcus faecalis DSM-20477, TSB, 37 °C, 24 h, read-out: MIC); 0.5 to 1 µM (≈ 0.239 to 0.478 µg/mL) in the experiment with S. pneumoniae DSM-11865 (DSM11865, S. pneumoniae DSM-11865, penicillin-resistant strain, TSB, 37 °C, 24 h, 5% CO2, read-out: MIC); 0.5 to 1 µM (≈ 0.239 to 0.478 µg/mL) in experiment [2] (DSM20566, TSB, 5% CO2, read-out: MIC); 0.5 to 1 µM in experiment [2] (TSB, 5% CO2).

Usually MIC stands for the lowest concentration that inhibits growth of the organism.
